The record followed here is PubChem BioAssay (NCI).

Test systems include SF-539 CNS; A549 NSCLC; KM12 colon; CAKI-1 renal; UO-31 renal; UACC-62 melanoma; IGROV1 ovarian; OVCAR-3 ovarian; OVCAR-5 ovarian; M14 melanoma.
Holding throughout (test): inhibition of tumour cell growth, NCI panel, 48 h

The structures appear in SMILES notation.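 Briefly, cells in 96-well plates were exposed to five compound concentrations for 48 h, and endpoints were estimated by linear interpolation. The concentration for 50% growth inhibition is given as GI50. Definition used: TGI = concentration required for complete inhibition of growth.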

For the compound `CCOC(=O)c1cc(C2=CCNC2=O)c(-c2cc(C)no2)[nH]1`, the TGI in the experiment on SF-539 CNS, in the experiment on A549 NSCLC, in the experiment with KM12 colon, with CAKI-1 renal, with UO-31 renal and in the experiment on UACC-62 melanoma was over 100 µM each time. Further, the TGI in the experiment on IGROV1 ovarian, in the experiment with OVCAR-3 ovarian, with OVCAR-5 ovarian and in the experiment with M14 melanoma was over 100 µM in each case.

With `CC(=O)NNc1nc(C)c(C(/C=C/c2ccc(Cl)cc2)=N\N=C(N)N)s1`, the TGI with SF-539 CNS, in the experiment on A549 NSCLC, with KM12 colon, with CAKI-1 renal, in the experiment on UO-31 renal and with UACC-62 melanoma was over 100 µM throughout. In addition, the TGI with IGROV1 ovarian, in the experiment on OVCAR-3 ovarian, with OVCAR-5 ovarian and with M14 melanoma was over 100 µM in each case.

Take `Clc1cc2nc(C3CCCCO3)[nH]c2cc1Cl` (centres undefined): the TGI with SF-539 CNS was 97 µM; in the experiment with A549 NSCLC, over 100 µM; with KM12 colon it was over 56.9 µM; in the experiment with CAKI-1 renal, over 100 µM; with UO-31 renal, over 53.3 µM; in the experiment on UACC-62 melanoma, over 100 µM. Further, the TGI is over 100 µM in the experiment on IGROV1 ovarian, 23.9 µM in the experiment with OVCAR-3 ovarian, over 100 µM in the experiment with OVCAR-5 ovarian and over 100 µM with M14 melanoma.

For `O=C(c1cc(Cl)cc(Cl)c1)N(Cc1cccnc1)C(=S)N(Cc1cccnc1)C(=O)c1cc(Cl)cc(Cl)c1`, the TGI with SF-539 CNS was 51.4 µM; in the experiment with A549 NSCLC it was over 100 µM; in the experiment on KM12 colon it was over 100 µM; in the experiment on CAKI-1 renal, over 100 µM; in the experiment on UO-31 renal, 56.2 µM; with UACC-62 melanoma, over 100 µM. In addition, the values for the TGI with OVCAR-3 ovarian, with OVCAR-5 ovarian and with M14 melanoma were 61.6 µM, over 100 µM and 72 µM, respectively.

`CC1=NN(c2cccc(Cl)c2)C2(C1=Cc1cccs1)C(Cl)C(=O)N2c1nc2ccccc2s1` (centres undefined): the TGI was 30.5 µM in the experiment on SF-539 CNS; 63.7 µM in the experiment on A549 NSCLC; over 100 µM with KM12 colon; 84.5 µM in the experiment with CAKI-1 renal; 69.6 µM in the experiment with UO-31 renal; over 100 µM in the experiment with IGROV1 ovarian. Besides, the TGI is 52 µM in the experiment on OVCAR-3 ovarian, 41.9 µM with OVCAR-5 ovarian and over 100 µM in the experiment on M14 melanoma.

For `Clc1ccc(OCc2nnc3sc(SSc4nn5c(COc6ccc(Cl)cc6)nnc5s4)nn23)cc1`, the TGI in the experiment with SF-539 CNS, in the experiment with A549 NSCLC, with KM12 colon, in the experiment on CAKI-1 renal, with UO-31 renal and with UACC-62 melanoma was over 100 µM in each case. The TGI with IGROV1 ovarian was over 100 µM; with OVCAR-3 ovarian, 80.4 µM; in the experiment on OVCAR-5 ovarian, over 100 µM; with M14 melanoma, over 100 µM. Also, the GI50 in the experiment on CAKI-1 renal was 77.3 µM; in the experiment with UACC-62 melanoma, 44.7 µM; with OVCAR-3 ovarian it was 35.3 µM.

Take `O=C(CCc1ccc(O)c(O)c1)NCCc1ccccc1`: the TGI in the experiment on SF-539 CNS was over 89.9 µM; in the experiment with A549 NSCLC, over 100 µM; in the experiment on KM12 colon, over 100 µM; in the experiment on CAKI-1 renal it was 41 µM; with UO-31 renal it was over 74.5 µM; in the experiment with UACC-62 melanoma it was over 65.2 µM. The TGI with IGROV1 ovarian, with OVCAR-3 ovarian, in the experiment on OVCAR-5 ovarian and with M14 melanoma was over 100 µM in each case.

`COC(O)C(=O)c1c2c(cc3c1CCC3)CCC2` (centres undefined): the TGI in the experiment with SF-539 CNS, in the experiment on A549 NSCLC, in the experiment with KM12 colon, with CAKI-1 renal, in the experiment on UO-31 renal and in the experiment on UACC-62 melanoma was over 100 µM each time. Further, the TGI in the experiment with IGROV1 ovarian, in the experiment with OVCAR-3 ovarian, with OVCAR-5 ovarian and in the experiment on M14 melanoma was over 100 µM each time.

`O=C1C=CC(=O)c2c(O)c(NCCO)c(Cl)c(O)c21`: the TGI in the experiment on SF-539 CNS is 5.73 µM; in the experiment with A549 NSCLC it was 3.78 µM; in the experiment on KM12 colon, over 10 µM; with CAKI-1 renal, over 10 µM; in the experiment with UO-31 renal it was over 10 µM; with UACC-62 melanoma it was 3.47 µM. For the same compound, the TGI with IGROV1 ovarian was 5.63 µM; in the experiment with OVCAR-3 ovarian, 7.41 µM; in the experiment with OVCAR-5 ovarian it was over 5.87 µM; in the experiment on M14 melanoma it was 4.78 µM.

As to `C/C(=N\Nc1nc2ccccc2o1)c1ncccn1`, the TGI turned out to be 1.03 µM in the experiment on SF-539 CNS; 12.1 µM in the experiment on A549 NSCLC; 30.2 µM in the experiment with KM12 colon; 1.57 µM with CAKI-1 renal; 0.609 µM in the experiment on UO-31 renal; 0.449 µM with UACC-62 melanoma. The TGI in the experiment with IGROV1 ovarian was determined as 1.16 µM; in the experiment on OVCAR-5 ovarian it was 19.6 µM; in the experiment with M14 melanoma, 0.295 µM.

On to `Cc1n[nH]c(=O)n1Nc1ccccc1`, for which the TGI in the experiment on SF-539 CNS, in the experiment on A549 NSCLC, in the experiment on KM12 colon, in the experiment on CAKI-1 renal, with UO-31 renal and in the experiment with UACC-62 melanoma was over 100 µM in each case. The TGI in the experiment on IGROV1 ovarian, with OVCAR-3 ovarian, in the experiment on OVCAR-5 ovarian and in the experiment with M14 melanoma was over 100 µM each time.

Turning to `O=c1sc(Nc2ccc3ccccc3c2Cl)nc2ccccc12`, the TGI in the experiment with SF-539 CNS, in the experiment with A549 NSCLC, in the experiment on KM12 colon, in the experiment on CAKI-1 renal, with UO-31 renal and in the experiment on UACC-62 melanoma was over 100 µM in each case. Moreover, the TGI in the experiment on IGROV1 ovarian, in the experiment with OVCAR-3 ovarian and in the experiment with OVCAR-5 ovarian was over 100 µM in each case.

For `COc1cccc(C2c3cc4c(cc3OC(NNC(N)=O)C2C)OCO4)c1O` (centres undefined), the TGI was 6.55 µM in the experiment on SF-539 CNS; over 39.8 µM in the experiment with A549 NSCLC; over 79.2 µM in the experiment on KM12 colon; over 77.9 µM in the experiment on CAKI-1 renal; over 75.3 µM with UO-31 renal; over 100 µM in the experiment with UACC-62 melanoma. Moreover, the TGI in the experiment with IGROV1 ovarian was over 100 µM; in the experiment on OVCAR-3 ovarian, 29.6 µM; in the experiment with OVCAR-5 ovarian, over 100 µM; in the experiment on M14 melanoma, 23.6 µM.
